Series [1] is described as follows: Storage stability in 30 vol % aqueous ethanol (coloration, residual content). To be noted: 2 mM in 30 vol % aqueous ethanol, 40° C., light-tight, 6 months. In kind it is physicochemical. On the procedure: Each of resveratrol 3-O-α-glucoside (produced in Production Example 1), resveratrol (Tokyo Chemical Industry Co., Ltd.), and resveratrol 4′-O-α-glucoside (produced in Production Example 1) was dissolved in a 30 vol % aqueous solution of ethanol to a concentration of 2 mM, and the solution was stored at 40° C. under light-tight conditions. The coloration of the solution after being stored for 6 months was visually observed. Further, absorbances at 430 nm of the solution before and after the storage were measured, and the residual amount of each of the components in the solution was analyzed using HPLC. HPLC was performed under the same conditions as those described in Production Example 1.

The nature of series [2]: DPPH radical scavenging effect. In kind it is biochemical. On the procedure:
Resveratrol 3-O-α-glucoside was dissolved in water to a concentration of 100, 250, 500, or 1000 μmol/L, and the resulting solution was used as a sample solution.
In 10 mL of ethanol, 2 mg of 2,2-diphenyl-1-picrylhydrazyl (Wako Pure Chemical Industries, Ltd.) was dissolved, and the resulting solution was used as the DPPH solution.
Using each of the solutions prepared as above, the DPPH radical scavenging effect was evaluated in accordance with the following procedures. One-hundred microliters of the sample solution, 500 μL, of the DPPH solution, 250 μL of a […] MES (2-morpholinoethanesulfonic acid) buffer, and 150 μL of distilled water were mixed and reacted at 30° C. for 30 minutes. The absorbance at 517 nm was subsequently measured. Further, distilled water (control solution) was used instead of the sample solution, and the absorbance at 517 nm was measured under the same conditions as described above. From the measured value of absorbance, the DPPH radical scavenging ratio was determined in accordance with the equation shown below. DPPH radical scavenging ratio (%)=(A−B)/A×100 [Equation 2]
In general terms: The DPPH test is a chemical assay of radical scavenging.

The next series has as its system IL-1β gene. The series is described as follows: Anti-inflammatory effect: IL-1β gene expression after Poly I:C-induced inflammation. In kind it is cell-based. To be noted: normal human epidermal keratinocytes, Poly I:C 1 μg/mL 9 hours, then 0.001 wt % for 15 hours; control = 100%, comparative group (Poly I:C only) 1210. The method, then:
Normal human epidermal keratinocytes were seeded into 12-well culture plates at 5×10^4 cells per well. As the medium, EpiLife KG-2 medium supplemented with insulin, the human […] growth factor (hEGF), hydrocortisone, anti-microbial agents, and bovine pituitary extract (BPE) was used (basal medium), and the cells were preincubated in 5% CO2 at 37° C. for 48 hours. Further, the cells were incubated for additional 48 hours in a medium obtained by removing hydrocortisone only from the basal medium (assay medium). Next, the medium was replaced with an inflammation-inducing medium obtained by supplementing the assay medium with Poly I:C (double strand of inosine ribonucleotide and cytidine ribonucleotide strands) to a concentration of 1 μg/mL, and the cells were cultured for 9 hours, thus preparing an inflammation model. […] After the culture, total RNA was extracted from the cells, and the level of expression of the proinflammatory cytokine IL-1β gene was quantified by real time PCR. […]
Taking as 100% the level of expression of the IL-1β gene for the control group, a relative ratio of the expression level of the IL-1β gene for each of the comparative group and the resveratrol 3-O-α-glucoside-supplemented group (IL-1β gene expression ratio, %) was calculated. […]

Series [3] concerns matrix metalloproteinase 1 (MMP1) gene. The series is described as follows: MMP1 gene expression in normal human dermal fibroblasts. It counts as cell-based. To be noted: 0.001 wt %, 24 hours, control = 100%. On the procedure: (§1) Using normal human dermal fibroblasts, the effect of resveratrol 3-O-α-glucoside on matrix metalloproteinase 1 (MMP1) and 9 (MMP9) genes in the dermis was investigated.
(§2) Normal human dermal fibroblasts were seeded into 12-well culture plates at 9×10^4 cells per well. As the medium, 10 vol % FBS (Fetal Bovine Serum)-containing DMEM medium (basal medium) was used, and the cells were preincubated in 5% CO2 at 37° C. for 24 hours. The medium was removed and then replaced with a basal medium supplemented with 0.001 wt % of resveratrol 3-O-α-glucoside, and the cells were cultured in 5% CO2 at 37° C. After 24 hours, total RNA was extracted from the cells, and the levels of expression of the MMP1 and MMP9 genes were quantified by real time PCR. As a control group, cells were cultured without resveratrol 3-O-α-glucoside, and total RNA collected from these cells was used.
(§3) Taking as 100% the level of expression of each of the MMP1 and MMP9 genes for the control group, a relative ratio of the expression level of each of the MMP1 and MMP9 genes for the resveratrol 3-O-α-glucoside-supplemented group (MMP1 and MMP9 gene expression ratios, %) was determined. In the measurement of the expression level of each of the MMP1 and MMP9 genes, GAPDH (glyceraldehyde 3-phosphate dehydrogenase) was used for internal standard correction.

Series [4] concerns matrix metalloproteinase 9 (MMP9) gene. The series is described as follows: MMP9 gene expression in normal human dermal fibroblasts. To be noted: 0.001 wt %, 24 hours, control = 100%. It counts as cell-based. The method, then:
as §1, §2, §3

For another series, the system named is sirtuin 1 gene. The series is described as follows: Sirtuin 1 gene expression-promoting effect (1). In kind it is cell-based. Particulars: normal human epidermal keratinocytes, 0.02 wt %, 72 hours; control = 100%. The method, then: Normal human epidermal keratinocytes were seeded into 12-well culture plates at 7.5×10^4 cells per well. As the medium, EpiLife KG-2 medium supplemented with insulin, hEGF, hydrocortisone, anti-microbial agents, and BPE was used (basal medium), and the cells were preincubated in 5% CO2 at 37° C. for 72 hours. The medium was removed and then replaced with a sample medium supplemented with resveratrol 3-O-α-glucoside to a concentration of 0.02 wt %, and the cells were cultured in 5% CO2 at 37° C. After 72 hours, total RNA was extracted from the cells, and the level of expression of the sirtuin 1 gene was quantified by real time PCR. As a control group, cells were cultured without resveratrol 3-O-α-glucoside, and total RNA collected from these cells was used.
Taking as 100% the level of expression of the sirtuin 1 gene for the control group, a relative ratio of the expression level of the sirtuin 1 gene for the resveratrol 3-O-α-glucoside-supplemented group (SIRT 1 gene expression ratio, %) was determined. In the measurement of the expression level of the sirtuin 1 gene, PPIA was used for internal standard correction.

For series [5] the following is noted: Non-Patent Literature 3; cited from earlier work.
The next series deals with tyrosinase. Particulars: Non-Patent Literatures 1 and 2; cited from earlier work.

Here are results for 2 compounds from patent US10149809B2, “Skin aging inhibitor and concentrate of resveratrol 3-O-α-glucoside” (priority 2014, dated 2018).

Molecules are shown by their SMILES.

Consider `OC[C@H]1O[C@H](Oc2cc(O)cc(C=Cc3ccc(O)cc3)c2)[C@H](O)[C@@H](O)[C@@H]1O` [Resveratrol 3-O-α-Glucoside, resveratrol 3-O-α-glucoside], for which the “Coloration: Difference between Absorbances at 430 nm (Δ A 430) before and after Storage” value in series [1] was found to be 0.03. Also, in series [1], the “Coloration: Visual Observation” value is “colorless”. Besides, the “Residual Content (%)” value in series [1] (HPLC) came out at 93%. Besides, the “DPPH Radical Scavenging Ratio (%)” value in series [2] (100 μmol/L in the sample solution) is reported as 13%; in series [2] (250 μmol/L in the sample solution), 30%; in series [2] (500 μmol/L in the sample solution), 50%; in series [2] (1000 μmol/L in the sample solution), 75%. Also, the “IL-1β Gene Expression Ratio (%)” value in the series on IL-1β gene is 885%. For the same compound, the “MMP1 Gene Expression Ratio (%)” value in series [3] is given as 85%. In addition, the “MMP9 Gene Expression Ratio (%)” value in series [4] turned out to be 45%. Further, the “SIRT 1 Gene Expression Ratio (%)” value with sirtuin 1 gene amounted to 171%.
Regarding `OC[C@H]1O[C@@H](Oc2cc(O)cc(/C=C/c3ccc(O)cc3)c2)[C@H](O)[C@@H](O)[C@@H]1O` [Resveratrol 3-O-β-Glucoside, resveratrol 3-O-β-glucoside], in series [5], the water solubility result is recorded as “approximately 400 μg/mL” and the “water solubility relative to that of resveratrol” value was “approximately 10 fold”. Besides, the “tyrosinase inhibitory effect compared to resveratrol” value in the series with tyrosinase is “inferior”.
